Tested on: synthesis and secretion of a type IV collagen protein in vascular endothelial cells derived from iPS cells
Experiment: Amount of type IV collagen protein released into the medium by iPS-derived vascular endothelial cells (Western blotting)
Type: cell-based, human
Conditions: 10 nmol/L digoxin, serum-free medium, 3 days culture; FIG. 3
Experimental: As the cells, iPS cells derived from healthy adults and patients with scleroderma established at Kumamoto University were used (Zhongzhi Wang, et al., JDS 2016 November; 84(2): 186-196.). Scleroderma is known to cause Raynaud's syndrome, which is one of peripheral vascular disorders, as a symptom of scleroderma, and therefore was employed as a vascular disorder model cell.
Differentiation induction into vascular endothelial cells was performed by culturing iPS cells derived from healthy adults and patients with scleroderma under the conditions described in Table 1.
As the obtained cells, only cells positive for VE-cadherin (CD144) and PECAM-1 (CD31), which are vascular endothelial cell markers, were sorted using flow cytometry. From the morphology of the sorted cells and the expression of the marker genes, it was confirmed that the sorted cells were vascular endothelial cells. […]
In the above (1), using the cell supernatant cultured in the serum-free medium, the amount of a type IV collagen protein released into the medium was quantified by the following method.
First, proteins released into the medium were concentrated. […] After removal of ethanol, the precipitate was dried and dissolved in an RIPA buffer, and each sample was adjusted to have a protein concentration of 1 mg/ml using a protein quantification reagent (Bradford Protein Assay, manufactured by Bio-Rad Laboratories, Inc.). […]

C[C@H]1O[C@@H](O[C@H]2[C@@H](O)C[C@H](O[C@H]3[C@@H](O)C[C@H](O[C@H]4CC[C@@]5(C)[C@H](CC[C@@H]6[C@@H]5C[C@@H](O)[C@]5(C)[C@@H](C7=CC(=O)OC7)CC[C@]65O)C4)O[C@@H]3C)O[C@@H]2C)C[C@H](O)[C@@H]1O [digoxin]
amount of a type IV collagen protein in the medium: hardly reduced

Source: patent US12564576B2, “Therapeutic agent for vascular disorder” (NATIONAL UNIVERSITY CORPORATION KUMAMOTO UNIVERSITY, priority 2020, dated 2026)
